Laboratory results published in patent publication US20250144067A1, “PERSONALIZED STARVATION THERAPY FOR CANCER” (Faeth Therapeutics, Inc., priority 2021, published 2025).
Where two headings read alike, the source gives them in different places.

Columns and labels:
[1] = test system: NCI-H292 lung cancer cells; experiment: FDA drug screening, complete media vs cholesterol-free media with simvastatin (TABLE 2); format: cell-based, human
[2] = test system: NCI-H292 lung cancer cells; experiment: FDA drug screening, complete media vs cholesterol-free media without statin (TABLE 1); format: cell-based, human
[3] = NCI-H292 cells, cholesterol-free media with simvastatin 0.04 μM, cell growth value in FDA drug screen
[4] = NCI-H292 cells, complete media, cell growth value in FDA drug screen
[5] = complete media minus cholesterol-free media + simvastatin, >0 enhanced anti-cancer activity, about 0 neutral, <0 antagonist
[6] = NCI-H292 cells, cholesterol-free media without statin
[7] = complete vs cholesterol-free media, greater than 0 enhanced anti-cancer activity, about 0 neutral, below 0 antagonists
[8] = NCI-H292 cells, drug in cholesterol-free media with simvastatin 0.04 μM
[9] = NCI-H292 cells, drug in complete media
[10] = complete media vs cholesterol-free media + simvastatin (0.04 μM), >0 enhanced anti-cancer activity, about 0 neutral, <0 antagonist
[11] = NCI-H292 cells in cholesterol-free media without statin
[12] = NCI-H292 cells in complete media
[13] = NCI-H292 cells, FDA drug library screen, cholesterol-free media with simvastatin 0.04 μM
[14] = NCI-H292 cells, FDA drug library screen, complete media
[15] = Complete minus Cholesterol-free, >0 enhanced anti-cancer activity, about 0 neutral, <0 antagonist
[16] = NCI-H292 cells, cholesterol-free media with simvastatin 0.04 μM, FDA drug library screen (TABLE 2)
[17] = NCI-H292 cells, complete media, FDA drug library screen (TABLE 2)
[18] = complete media minus cholesterol-free media + simvastatin (0.04 μM), >0 enhanced anti-cancer activity, about 0 neutral, <0 antagonist
[19] = complete media minus cholesterol-free media + simvastatin, […]
[20] = NCI-H292 cells, cholesterol-free media without statin, FDA drug library screen
[21] = complete vs cholesterol-free media, >0 enhanced anti-cancer activity, about 0 neutral, <0 antagonist
[22] = Complete minus Cholesterol-free, greater than 0 enhanced anti-cancer activity, about 0 neutral, below 0 antagonist
[23] = NCI-H292 cells, FDA drug library screen, cholesterol-free media without statin

Compound: CCCCCCCCCCCC[N+](C)(C)CCOc1ccccc1.[Br-] [Domiphen (bromide)]
- Cholesterol-free media + simvastatin (0.04 μM) [1]: 0.01614
- Complete Media [1]: −0.0427
- Difference [1]: −0.06
- Cholesterol-free [2]: −0.0357
- Complete [2]: 0.01628
- Difference [2]: 0.05

Compound: Cc1cn(-c2cc(NC(=O)c3ccc(C)c(Nc4nccc(-c5cccnc5)n4)c3)cc(C(F)(F)F)c2)cn1 [Nilotinib]
- Cholesterol-free media + simvastatin (0.04 μM) [1, 3]: 0.9437
- Complete Media [1, 4]: 0.9791
- Difference [1, 5]: 0.04
- Cholesterol-free [2, 6]: 1.511
- Complete ([2]; NCI-H292 cells, complete media): 1.113
- Difference [2, 7]: −0.40

Compound: CCCNC(=O)NS(=O)(=O)c1ccc(Cl)cc1 [Chlorpropamide]
- Cholesterol-free media + simvastatin (0.04 μM) [1, 8]: 1.114
- Complete Media [1, 9]: 0.9308
- Difference [1, 10]: −0.18
- Difference ([2]; Complete minus Cholesterol-free, greater than 0 enhanced anti-cancer activity, about 0 neutral, below 0 antagonists): −0.51
- Cholesterol-free [2, 11]: 1.49
- Complete [2, 12]: 0.9801

Compound: Nc1c(Br)cc(Br)cc1CN[C@H]1CC[C@H](O)CC1 [Ambroxol]
- Cholesterol-free media + simvastatin (0.04 μM) [1, 13]: 1.121
- Complete Media [1, 14]: 0.9656
- Difference [1, 10]: −0.16
- Difference [2, 15]: −0.22
- Cholesterol-free [2, 6]: 1.134
- Complete ([2]; NCI-H292 cells, complete media): 0.9121

Compound: CCOC(=O)N[C@@H]1CC[C@@H]2[C@@H](C1)C[C@H]1C(=O)O[C@H](C)[C@H]1[C@H]2/C=C/c1ccc(-c2cccc(F)c2)cn1 [Vorapaxar]
- Cholesterol-free media + simvastatin (0.04 μM) [1, 16]: 1.048
- Complete Media [1, 17]: 1.005
- Difference [1, 18]: −0.04
- Difference [2, 15]: −0.20
- Cholesterol-free [2, 6]: 1.186
- Complete ([2]; NCI-H292 cells, complete media): 0.984

Compound: Cetrorelix (Acetate)
- Cholesterol-free media + simvastatin (0.04 μM) ([1]; NCI-H292 cells, cholesterol-free media with simvastatin 0.04 μM, […]): 1.03
- Difference [1, 19]: 0.08
- Difference ([2]; Complete minus Cholesterol-free, […]): −1.14
- Cholesterol-free [2, 11]: 1.889
- Complete [2, 12]: 0.7459

Compound: Tocofersolan
- Cholesterol-free media + simvastatin (0.04 μM) [1, 13]: 0.3462
- Complete Media [1, 14]: 0.6285
- Difference [1, 19]: 0.28
- Cholesterol-free [2, 6]: 0.7811
- Complete ([2]; NCI-H292 cells, complete media): 0.4609
- Difference ([2]; complete vs cholesterol-free media, […]): −0.32

Compound: Metaproterenol (hemisulfate)
- Cholesterol-free media + simvastatin (0.04 μM) [1, 8]: 1.002
- Complete Media [1, 9]: 0.7891
- Difference [1, 10]: −0.21
- Cholesterol-free [2, 20]: 0.8425
- Difference [2, 21]: 0.09

Compound: CCN(CC)C(=O)c1cccc(C)c1 [Diethyltoluamide]
- Cholesterol-free media + simvastatin (0.04 μM) [1, 8]: 1.302
- Complete Media [1, 9]: 1.098
- Difference [1, 10]: −0.20
- Difference [2, 22]: −0.08
- Cholesterol-free [2, 23]: 1.096
- Complete [2, 14]: 1.015

Compound: NC(N)=O [Urea]
- Cholesterol-free media + simvastatin (0.04 μM) ([1]; NCI-H292 cells, FDA library drug in cholesterol-free media with simvastatin 0.04 μM): 1.928
- Complete Media ([1]; NCI-H292 cells, FDA library drug in complete media): 1.641
- Difference [1, 10]: −0.29
- Difference [2, 15]: −0.20
- Cholesterol-free [2, 6]: 1.334
- Complete ([2]; NCI-H292 cells, complete media): 1.138

Compound: NCC(CC(=O)O)c1ccc(Cl)cc1 (stereo not shown) [Baclofen]
- Cholesterol-free media + simvastatin (0.04 μM) [1, 3]: 0.9225
- Complete Media [1, 4]: 1.02
- Difference [1, 5]: 0.10
- Cholesterol-free [2, 20]: 0.5541
- Complete ([2]; NCI-H292 cells, complete media, FDA drug library screen): 1.886
- Difference [2, 21]: 1.33

Compound: N[C@@H](Cc1cc(I)c(Oc2ccc(O)c(I)c2)c(I)c1)C(=O)O [Liothyronine (sodium)]
- Cholesterol-free media + simvastatin (0.04 μM) [1, 8]: 1.302
- Complete Media [1, 9]: 1.113
- Difference [1, 10]: −0.19
- Cholesterol-free [2, 6]: 1.224
- Complete ([2]; NCI-H292 cells, complete media): 0.9078
- Difference [2, 7]: −0.32

Compound: N#Cc1ccc2c(c1)N(CCCN1CCC(O)CC1)c1ccccc1S2 [Pericyazine]
- Cholesterol-free media + simvastatin (0.04 μM) [1, 16]: 1.378
- Complete Media [1, 17]: 1.353
- Difference [1, 18]: −0.02
- Difference [2, 22]: −0.09
- Cholesterol-free [2, 23]: 0.9265
- Complete [2, 14]: 0.8353

Compound: C[C@H]1[C@H](OC(=O)CCC(=O)O)O[C@@H]2O[C@@]3(C)CC[C@H]4[C@H](C)CC[C@@H]1[C@@]24OO3 [Artesunate]
- Cholesterol-free media + simvastatin (0.04 μM) [1, 13]: 1.06
- Complete Media [1, 14]: 0.9407
- Difference [1, 10]: −0.12
- Cholesterol-free [2, 6]: 0.9732
- Complete ([2]; NCI-H292 cells, complete media): 0.63
- Difference [2, 7]: −0.34

Compound: CC(C)(C)NC(=O)N[C@H](C(=O)N1C[C@H]2[C@@H]([C@H]1C(=O)NC(CC1CCC1)C(=O)C(N)=O)C2(C)C)C(C)(C)C (stereo partly shown) [Boceprevir]
- Cholesterol-free media + simvastatin (0.04 μM) [1, 13]: 1.494
- Complete Media [1, 14]: 1.414
- Difference [1, 10]: −0.08
- Difference [2, 15]: −0.30
- Cholesterol-free [2, 6]: 1.3
- Complete ([2]; NCI-H292 cells, complete media): 1.001
